Target: T1, Met kinase domain (GST fusion protein) (Homo sapiens, UniProt P08581)
T1 construct: Purified GST fusion protein containing the Met kinase domain
Assay: Met transphosphorylation assay (ELISA, poly(glu-tyr) substrate);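 note: Cell-free ELISA with plate-bound poly(Glu:Tyr 4:1) phosphorylated by GST-fused Met kinase domain plus ATP and Mn2+, phosphotyrosine detected by anti-phosphotyrosine antibody with HRP and ABTS read-out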
Type: biochemical
Settings: Table 2; read-out: Met IC50
Protocol: General procedure is as follows: a compound is introduced to cells expressing the test kinase, either naturally or recombinantly, for a selected period of time after which, if the test kinase is a receptor, a ligand known to activate the receptor is added. The cells are lysed and the lysate is transferred to the wells of an ELISA plate previously coated with a specific antibody recognizing the substrate of the enzymatic phosphorylation reaction. Non-substrate components of the cell lysate are washed away and the amount of phosphorylation on the substrate is detected with an antibody specifically recognizing phosphotyrosine compared with control cells that were not contacted with a test compound.
Met Transphosphorylation Assay
This assay is used to measure phosphotyrosine levels on a poly(glutamic acid:tyrosine, 4:1) substrate as a means for identifying agonists/antagonists of met transphosphorylation of the substrate.
PBS, Gibco Catalog # 450-1300EB • 4. 50 mM HEPES • 5. […] Purified GST fusion protein containing the Met kinase domain, SUGEN, Inc. • 7. TBST Buffer. • 8. 10% aqueous (MilliQue H2O) DMSO. • 9. […] 2× Kinase Dilution Buffer: for 100 mL, mix 10 mL 1M HEPESat pH 7.5 with 0.4 mL 5% BSA/PBS, 0.2 mL 0.1 M sodium orthovanadate and 1 mL 5M sodium chloride in 88.4 mL dH2O. • 11. 4× ATP Reaction Mixture: for 10 mL, mix 0.4 mL 1 M manganese chloride and 0.02 mL 0.1 M ATP in 9.56 mL dH2O. • 12. 4× Negative Controls Mixture: for 10 mL, mix 0.4 mL 1 M manganese chloride in 9.6 mL dH2O. • 13. […] 500 mM EDTA. • 15. Antibody Dilution Buffer: for 100 mL, mix 10 mL 5% BSA/PBS, 0.5 mL 5% Carnation® Instant Milk in PBS and 0.1 mL 0.1 M sodium orthovanadate in 88.4 mL TBST. • 16. Rabbit polyclonal antophosphotyrosine antibody, SUGEN, Inc. • 17. Goat anti-rabbit horseradish peroxidase conjugated antibody, Biosource, Inc. • 18. ABTS Solution: for 1 L, mix 19.21 g citric acid, 35.49 g Na2HPO4 and 500 mg ABTS with sufficient dH2O to make 1 L. • 19. ABTS/H2O2: mix 15 mL ABST solution with 2μL H2O2 five minutes before use. • 20. 0.2 M HCl Procedure: • 1. Coat ELISA plates with 2 μg Poly(Glu-Tyr) in 100 μL PBS, hold-overnight at 4° C. • 2. Block plate with 150 μL of 5% BSA/PBS for 60 min. • 3. Wash plate twice with PBS then once with 50 mM Hepes buffer pH 7.4. • 4. Add 50 μl of the diluted kinase to all wells. (Purified kinase is diluted with Kinase Dilution Buffer. Final concentration should be 10 ng/well.) • 5. Add 25 μL of the test compound (in 4% DMSO) or DMSO alone (4% in dH2O) for controls to plate. • 6. Incubate the kinase/compound mixture for 15 minutes. • 7. Add 25 μL of 40 mM MnCl2 to the negative control wells. • 8. Add 25 μL ATP/MnCl2 mixture to the all other wells (except the negative controls). Incubate for 5 min. • 9. Add 25 μL 500 mM EDTA to stop reaction. • 10. Wash plate 3× with TBST. • 11. Add 100 μL rabbit polyclonal anti-Ptyr diluted 1:10,000 in Antibody Dilution Buffer to each well. Incubate, with shaking, at room temperature for one hour. • 12. Wash plate 3× with TBST. • 13. […] Add 100 μL per well and incubate at room temperature, with shaking, for one hour. • 14. Wash plate 1× with PBS. • 15. Add 100 μl of ABTS/H2O2 solution to each well. • 16. If necessary, stop the development reaction with the addition of 100 μl of 0.2M HCl per well. • 17.

T1 sequence (P08581 1078-1345 limits assumed): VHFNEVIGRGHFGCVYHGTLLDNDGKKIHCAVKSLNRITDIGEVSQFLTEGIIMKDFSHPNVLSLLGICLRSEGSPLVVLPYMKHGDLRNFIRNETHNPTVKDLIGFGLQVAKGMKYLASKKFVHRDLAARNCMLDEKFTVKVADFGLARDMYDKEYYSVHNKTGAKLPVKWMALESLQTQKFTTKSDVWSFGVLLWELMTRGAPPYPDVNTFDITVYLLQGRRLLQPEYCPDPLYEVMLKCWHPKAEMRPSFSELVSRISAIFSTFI

Row | SMILES | IC50
1 | CC(Oc1cc(-c2cccc(C(=O)NCCN3CCOCC3)c2)cnc1N)c1c(Cl)ccc(F)c1Cl (stereo not shown) [Example I-321, 3-{6-Amino-5-[1-(2,6-dichloro-3-fluoro-phenyl)-ethoxy]-pyridin-3-yl}-N-(2-morpholin-4-yl-ethyl)-benzamide] | 180 nM
2 | CC(Oc1cc(-c2cccc(C(=O)N3CCC(N4CCCC4)CC3)c2)cnc1N)c1c(Cl)ccc(F)c1Cl (stereo not shown) [Example I-322, (3-{6-Amino-5-[1-(2,6-dichloro-3-fluoro-phenyl)-ethoxy]-pyridin-3-yl}-phenyl)-(4-pyrrolidin-1-yl-piperidin-1-yl)-methanone] | 71 nM
3 | CCN(CC)CCS(=O)(=O)Nc1ccc(-c2cnc(N)c(OC(C)c3c(Cl)ccc(F)c3Cl)c2)cc1 (stereo not shown) [Example I-323, 2-Diethylamino-ethanesulfonic acid (4-{6-amino-5-[1-(2,6-dichloro-3-fluoro-phenyl)-ethoxy]-pyridin-3-yl}-phenyl)-amide] | 80 nM
4 | CC(Oc1cc(-c2ccc(NS(=O)(=O)CCN3CCCCC3)cc2)cnc1N)c1c(Cl)ccc(F)c1Cl (stereo not shown) [Example I-325] | 89 nM
5 | CC(Oc1cc(-c2ccc(NS(=O)(=O)CCNCC3CC3)cc2)cnc1N)c1c(Cl)ccc(F)c1Cl (stereo not shown) [Example I-326, 2-(Cyclopropylmethyl-amino)-ethanesulfonic acid (4-{6-amino-5-[1-(2,6-dichloro-3-fluoro-phenyl)-ethoxy]-pyridin-3-yl}-phenyl)-amide] | 75 nM
6 | CC(Oc1cc(-c2ccc(NS(=O)(=O)CCN3CC[C@@H](O)C3)cc2)cnc1N)c1c(F)ccc(F)c1Cl (stereo partly shown) [Example I-327] | 93 nM
7 | CC(Oc1cc(-c2ccc(NS(=O)(=O)CCNC3CC3)cc2)cnc1N)c1c(F)ccc(F)c1Cl (stereo not shown) [Example I-328, 2-Cyclopropylamino-ethanesulfonic acid (4-{6-amino-5-[1-(2-chloro-3,6-difluoro-phenyl)-ethoxy]-pyridin-3-yl}-phenyl)-amide] | 160 nM
8 | CCN(CC)CCS(=O)(=O)Nc1ccc(-c2cnc(N)c(OC(C)c3c(F)ccc(F)c3Cl)c2)cc1 (stereo not shown) [Example I-329, 2-Diethylamino-ethanesulfonic acid (4-{6-amino-5-[1-(2-chloro-3,6-difluoro-phenyl)-ethoxy]-pyridin-3-yl}-phenyl)-amide] | 95 nM
9 | CC(Oc1cc(-c2ccc(C(=O)NCCN3CCOCC3)cc2)cnc1N)c1c(F)ccc(F)c1Cl (stereo not shown) [Example I-331, 4-{6-Amino-5-[1-(2-chloro-3,6-difluoro-phenyl)-ethoxy]-pyridin-3-yl}-N-(2-morpholin-4-yl-ethyl)-benzamide] | 130 nM
10 | CC(Oc1cc(-c2ccc(C(=O)NC3CCN(C)CC3)cc2)cnc1N)c1c(F)ccc(F)c1Cl (stereo not shown) [Example I-332, 4-{6-Amino-5-[1-(2-chloro-3,6-difluoro-phenyl)-ethoxy]-pyridin-3-yl}-N-(1-methyl-piperidin-4-yl)-benzamide] | 79 nM
11 | CC(Oc1cc(-c2ccc(C(=O)N3CC[C@@H](N)C3)cc2)cnc1N)c1c(F)ccc(F)c1Cl (stereo partly drawn) [Example I-334, (4-{6-Amino-5-[1-(2-chloro-3,6-difluoro-phenyl)-ethoxy]-pyridin-3-yl}-phenyl)-((R)-3-amino-pyrrolidin-1-yl)-methanone] | 89 nM
12 | CC(Oc1cc(-c2ccc(C(=O)N3C[C@@H](C)N[C@@H](C)C3)cc2)cnc1N)c1c(F)ccc(F)c1Cl (stereo partly drawn) [Example I-335, (4-{6 Amino-5-[1-(2-chloro-3,6-difluoro-phenyl)-ethoxy]-pyridin-3-yl}-phenyl)-((3R,5S)-3,5-dimethyl-piperazin-1-yl)-methanone] | 90 nM
13 | CC(Oc1cc(-c2ccc(C(=O)NCCCN3CCCC3)cc2)cnc1N)c1c(F)ccc(F)c1Cl (stereo not shown) [Example I-336, 4-{6-Amino-5-[1-(2-chloro-3,6-difluoro-phenyl)-ethoxy]-pyridin-3-yl}-N-(3-pyrrolidin-1-yl-propyl)-benzamide] | 90 nM
14 | CC(Oc1cc(-c2ccc(C(=O)N3CCN(C)CC3)cc2)cnc1N)c1c(F)ccc(F)c1Cl (stereo not shown) [Example I-338, (4-{6-Amino-5-[1-(2-chloro-3,6-difluoro-phenyl)-ethoxy]-pyridin-3-yl}-phenyl)-(4-methyl-piperazin-1-yl)-methanone] | 77 nM
15 | CC(Oc1cc(-c2ccc(C(=O)NCCN3CCCC3)cc2)cnc1N)c1c(F)ccc(F)c1Cl (stereo not shown) [Example I-340, 4-{6-Amino-5-[1-(2-chloro-3,6-difluoro-phenyl)-ethoxy]-pyridin-3-yl}-N-(2-pyrrolidin-1-yl-ethyl)-benzamide] | 86 nM
16 | CC(Oc1cc(-c2ccc(C(=O)N3CC[C@H](N)C3)cc2)cnc1N)c1c(F)ccc(F)c1Cl (stereo partly drawn) [Example I-341, (4-{6-Amino-5-[1-(2-chloro-3,6-difluoro-phenyl)-ethoxy]-pyridin-3-yl}-phenyl)-((S)-3-amino-pyrrolidin-1-yl)-methanone] | 75 nM
17 | CC(Oc1cc(-c2cccc(C(=O)N3C[C@@H](C)N[C@@H](C)C3)c2)cnc1N)c1c(F)ccc(F)c1Cl (stereo partly shown) [Example I-343] | 160 nM
18 | CC(Oc1cc(-c2cccc(C(=O)N3CC[C@@H](N)C3)c2)cnc1N)c1c(F)ccc(F)c1Cl (stereo partly drawn) [Example I-344, (3-{6-Amino-5-[1-(2-chloro-3,6-difluoro-phenyl)-ethoxy]-pyridin-3-yl}-phenyl)-((R)-3-amino-pyrrolidin-1-yl)-methanone] | 120 nM
19 | CC(Oc1cc(-c2cccc(C(=O)NC3CCN(C)CC3)c2)cnc1N)c1c(F)ccc(F)c1Cl (stereo not shown) [Example I-345, 3-{6-Amino-5-[1-(2-chloro-3,6-difluoro-phenyl)-ethoxy]-pyridin-3-yl}-N-(1-methyl-piperidin-4-yl)-benzamide] | 200 nM

Next, values leading:

Row | IC50 | SMILES
20 | 190 nM | CC(Oc1cc(-c2cccc(C(=O)N3CCN(C)CC3)c2)cnc1N)c1c(F)ccc(F)c1Cl (stereo not shown) [Example I-346, (3-{6-Amino-5-[1-(2-chloro-3,6-difluoro-phenyl)-ethoxy]-pyridin-3-yl}-phenyl)-(4-methyl-piperazin-1-yl)-pnl methanone]
21 | 210 nM | CC(Oc1cc(-c2cccc(C(=O)NCCCN3CCCC3)c2)cnc1N)c1c(F)ccc(F)c1Cl (stereo not shown) [Example I-347, 3-{6-Amino-5-[1-(2-chloro-3,6-difluoro-phenyl)-ethoxy]-pyridin-3-yl}-N-(3-pyrrolidin-1-yl-propyl)-benzamide]
22 | 200 nM | CC(Oc1cc(-c2cccc(C(=O)NCCN3CCCC3)c2)cnc1N)c1c(F)ccc(F)c1Cl (stereo not shown) [Example I-348, 3-{6-Amino-5-[1-(2-chloro-3,6-difluoro-phenyl)-ethoxy]-pyridin-3-yl}-N-(2-pyrrolidin-1-yl-ethyl)-benzamide]
23 | 130 nM | CC(Oc1cc(-c2cccc(C(=O)N3CC[C@H](N)C3)c2)cnc1N)c1c(F)ccc(F)c1Cl (stereo partly drawn) [Example I-349, (3-{6-Amino-5-[1-(2-chloro-3,6-difluoro-phenyl)-ethoxy]-pyridin-3-yl}-phenyl)-((S)-3-amino-pyrrolidin-1-yl)-methanone]
24 | 390 nM | CC(Oc1cc(-c2cccc(C(=O)NCCN3CCOCC3)c2)cnc1N)c1c(F)ccc(F)c1Cl (stereo not shown) [Example I-350, 3-{6-Amino-5-[1-(2-chloro-3,6-difluoro-phenyl)-ethoxy]-pyridin-3-yl}-N-(2-morpholin-4-yl-ethyl)-benzamide]
25 | 230 nM | CC(Oc1cc(-c2cccc(C(=O)N3CCC[C@@H]3CN3CCCC3)c2)cnc1N)c1c(F)ccc(F)c1Cl (stereo partly shown) [Example I-351]
26 | 150 nM | CC(Oc1cc(-c2cccc(C(=O)N3CCC[C@H]3CN3CCCC3)c2)cnc1N)c1c(F)ccc(F)c1Cl (stereo partly shown) [Example I-352]
27 | 230 nM | CC(Oc1cc(-c2ccc(OCCN3CCOCC3)cc2)cnc1N)c1c(F)ccc(F)c1Cl (stereo not shown) [Example I-353, 3-[1-(2-Chloro-3,6-difluoro-phenyl)-ethoxy]-5-[4-(2-morpholin-4-yl-ethoxy)-phenyl]-pyridin-2-ylamine]
28 | 220 nM | CC(Oc1cc(-c2cccc(OCCN3CCOCC3)c2)cnc1N)c1c(F)ccc(F)c1Cl (stereo not shown) [Example I-354, 3-[1-(2-Chloro-3,6-difluoro-phenyl)-ethoxy]-5-[3-(2-morpholin-4-yl-ethoxy)-phenyl]-pyridin-2-ylamine]
29 | 68 nM | CC(Oc1cc(-c2ccc(OCCN3CCCC3)cc2)cnc1N)c1c(Cl)ccc(F)c1Cl (stereo not shown) [Example I-355, 3-[1-(2,6-Dichloro-3-fluoro-phenyl)-ethoxy]-5-[4-(2-pyrrolidin-1-yl-ethoxy)-phenyl]-pyridin-2-ylamine]
30 | 79 nM | CC(Oc1cc(-c2ccc(OCCC3CCCN3C)cc2)cnc1N)c1c(Cl)ccc(F)c1Cl (stereo not shown) [Example I-356]
31 | 130 nM | CC(Oc1cc(-c2ccc(OCCN3CCOCC3)cc2)cnc1N)c1c(Cl)ccc(F)c1Cl (stereo not shown) [Example I-357, 3-[1-(2,6-Dichloro-3-fluoro-phenyl)-ethoxy]-5-[4-(2-morpholin-4-yl-ethoxy)-phenyl]-pyridin-2-ylamine]
32 | 220 nM | CC(Oc1cc(-c2cccc(OCCN3CCOCC3)c2)cnc1N)c1c(Cl)ccc(F)c1Cl (stereo not shown) [Example I-358, 3-[1-(2,6-Dichloro-3-fluoro-phenyl)-ethoxy]-5-[3-(2-morpholin-4-yl-ethoxy)-phenyl]-pyridin-2-ylamine]
33 | 45 nM | CC(Oc1cc(-c2ccc(OCC(O)CN3CCOCC3)cc2)cnc1N)c1c(Cl)ccc(F)c1Cl (stereo not shown) [Example I-359, 1-(4-{6-Amino-5-[1-(2,6-dichloro-3-fluoro-phenyl)-ethoxy]-pyridin-3-yl}-phenoxy)-3-morpholin-4-yl-propan-2-ol]
34 | 33 nM | CCN(CC)CCOc1ccc(-c2cnc(N)c(OC(C)c3c(Cl)ccc(F)c3Cl)c2)cc1 (stereo not shown) [Example I-360, 3-[1-(2,6-Dichloro-3-fluoro-phenyl)-ethoxy]-5-[4-(2-diethylamino-ethoxy)-phenyl]-pyridin-2-ylamine]
35 | 43 nM | CC(Oc1cc(-c2ccc(OCC3CCCN(C)C3)cc2)cnc1N)c1c(Cl)ccc(F)c1Cl (stereo not shown) [Example I-361, 3-[1-(2,6-Dichloro-3-fluoro-phenyl)-ethoxy]-5-[4-(1-methyl-piperidin-3-ylmethoxy)-phenyl]-pyridin-2-ylamine]
36 | 52 nM | CC(Oc1cc(-c2ccc(OCCN(C(C)C)C(C)C)cc2)cnc1N)c1c(Cl)ccc(F)c1Cl (stereo not shown) [Example I-362]
37 | 52 nM | CC(Oc1cc(-c2ccc(OC3CCN(C)CC3)cc2)cnc1N)c1c(Cl)ccc(F)c1Cl (stereo not shown) [Example I-363, 3-[1-(2,6-Dichloro-3-fluoro-phenyl)-ethoxy]-5-[4-(1-methyl-piperidin-4-yloxy)-phenyl]-pyridin-2-ylamine]

— US20050009840A1 (SUGEN, INC., priority 2003, published 2005)
